Measured values from ChEMBL document CHEMBL1201862, “PubChem BioAssay data set” (2004).
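Assay format: 96-well plates, 48-hour exposure. At the GI50, growth is halved.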 The source made the active and inactive calls. No stated cut-off is given here; in the data, active = GI50 up to about 1.1 µM and inactive = higher.

Tests used:
Assay in all cases: NCI tumour cell line growth inhibition, 48 h
HL-60 = tested on: HL-60
RPMI-8226 = tested on: RPMI-8226
HCT-15 = tested on: HCT-15
SNB-78 = tested on: SNB-78
LOX IMVI = tested on: LOX IMVI
HOP-18 = tested on: HOP-18
A549 = tested on: A549
OVCAR-8 = tested on: OVCAR-8
SNB-19 = tested on: SNB-19
SN12C = tested on: SN12C
KM-20L2 = tested on: KM-20L2
A498 = tested on: A498
COLO 205 = tested on: COLO 205
SK-MEL-2 = tested on: SK-MEL-2
EKVX = tested on: EKVX
CCRF-CEM = tested on: CCRF-CEM
SF-268 = tested on: SF-268
OVCAR-4 = tested on: OVCAR-4
SK-MEL-5 = tested on: SK-MEL-5
MOLT-4 = tested on: MOLT-4
MDA-N = tested on: MDA-N
M14 = tested on: M14
HCC 2998 = tested on: HCC 2998
OVCAR-3 = tested on: OVCAR-3
SF-295 = tested on: SF-295
XF498 = tested on: XF498
MDA-MB-435 = tested on: MDA-MB-435
NCI-H226 = tested on: NCI-H226
DMS-114 = tested on: DMS-114
K562 = tested on: K562
DLD-1 = tested on: DLD-1
TK-10 = tested on: TK-10
MCF7 = tested on: MCF7
RXF 393 = tested on: RXF 393
786-0 = tested on: 786-0
T47D = tested on: T47D
M19-MEL = tested on: M19-MEL
Malme-3M = tested on: Malme-3M
SK-OV-3 = tested on: SK-OV-3
IGROV-1 = tested on: IGROV-1
U-251 = tested on: U-251
SW-620 = tested on: SW-620
MDA-MB-231 = tested on: MDA-MB-231
UACC-62 = tested on: UACC-62
NCI-H522 = tested on: NCI-H522
KM12 = tested on: KM12
HCT-116 = tested on: HCT-116
UO-31 = tested on: UO-31
HOP-92 = tested on: HOP-92
NCI/ADR-RES = tested on: NCI/ADR-RES
HT-29 = tested on: HT-29
UACC-257 = tested on: UACC-257
PC-3 = tested on: PC-3
ACHN = tested on: ACHN
SR = tested on: SR
OVCAR-5 = tested on: OVCAR-5
DU-145 = tested on: DU-145
CAKI-1 = tested on: CAKI-1
Hs-578T = tested on: Hs-578T
NCI-H23 = tested on: NCI-H23
HOP-62 = tested on: HOP-62
SNB-75 = tested on: SNB-75
DMS-273 = tested on: DMS-273
BT-549 = tested on: BT-549
NCI-H460 = tested on: NCI-H460
SF-539 = tested on: SF-539
SK-MEL-28 = tested on: SK-MEL-28

Nc1nc(F)nc2c1ncn2C1OC(COP(=O)(O)O)C(O)C1O (configuration not stated)
GI50 (HL-60): 5.4 µM (inactive) | GI50 (RPMI-8226): 80.4 µM (inactive) | GI50 (HCT-15): 175 µM | GI50 (SNB-78): 186 µM (inactive) | GI50 (LOX IMVI): 53.8 µM (inactive) | GI50 (HOP-18): 63.2 µM (inactive) | GI50 (A549): 40.7 µM (inactive) | GI50 (OVCAR-8): 2.91 µM (inactive) | GI50 (SNB-19): 25.1 µM (inactive) | GI50 (SN12C): 6.47 µM (inactive) | GI50 (KM-20L2): 105 µM (inactive) | GI50 (A498): 146 µM (inactive) | GI50 (COLO 205): 95.1 µM (inactive) | GI50 (SK-MEL-2): 31.4 µM (inactive) | GI50 (EKVX): 45.9 µM (inactive) | GI50 (CCRF-CEM): 1.59 µM (inactive) | GI50 (SF-268): 76 µM (inactive) | GI50 (OVCAR-4): 212 µM (inactive) | GI50 (SK-MEL-5): 56.4 µM (inactive) | GI50 (MOLT-4): 4.38 µM (inactive) | GI50 (MDA-N): 34 µM (inactive) | GI50 (M14): 6.4 µM (inactive) | GI50 (HCC 2998): 177 µM (inactive) | GI50 (OVCAR-3): 119 µM (inactive) | GI50 (SF-295): 309 µM (inactive) | GI50 (XF498): 66.8 µM (inactive) | GI50 (MDA-MB-435): 11.9 µM (inactive) | GI50 (NCI-H226): 98.2 µM (inactive) | GI50 (DMS-114): 10.7 µM (inactive) | GI50 (K562): 111 µM (inactive) | GI50 (DLD-1): 101 µM (inactive) | GI50 (TK-10): 128 µM (inactive) | GI50 (MCF7): 78.3 µM (inactive) | GI50 (RXF 393): 51.4 µM (inactive) | GI50 (786-0): 39.5 µM (inactive) | GI50 (T47D): 78.7 µM (inactive) | GI50 (M19-MEL): 46.1 µM (inactive) | GI50 (Malme-3M): 23.3 µM (inactive) | GI50 (SK-OV-3): 26.9 µM (inactive) | GI50 (IGROV-1): 286 µM (inactive) | GI50 (U-251): 231 µM (inactive) | GI50 (SW-620): 64.9 µM (inactive) | GI50 (MDA-MB-231): 80.2 µM (inactive) | GI50 (UACC-62): 56.2 µM (inactive) | GI50 (NCI-H522): 63.1 µM (inactive) | GI50 (KM12): 266 µM (inactive) | GI50 (HCT-116): 33.1 µM (inactive) | GI50 (UO-31): 13.2 µM (inactive) | GI50 (HOP-92): 7.38 µM (inactive) | GI50 (NCI/ADR-RES): 4.11 µM (inactive) | GI50 (HT-29): 310 µM (inactive) | GI50 (UACC-257): 146 µM (inactive) | GI50 (PC-3): 16.6 µM (inactive) | GI50 (ACHN): 32.1 µM (inactive) | GI50 (SR): 21.8 µM (inactive) | GI50 (OVCAR-5): 41.9 µM (inactive) | GI50 (DU-145): 9.57 µM (inactive) | GI50 (CAKI-1): 8.17 µM (inactive) | GI50 (Hs-578T): 81.5 µM (inactive) | GI50 (NCI-H23): 19.6 µM (inactive) | GI50 (HOP-62): 8.53 µM (inactive) | GI50 (SNB-75): 188 µM (inactive) | GI50 (DMS-273): 225 µM (inactive) | GI50 (BT-549): 56.2 µM (inactive) | GI50 (NCI-H460): 94 µM (inactive) | GI50 (SF-539): 146 µM (inactive) | GI50 (SK-MEL-28): 58.1 µM (inactive)
